These results are taken from PubChem BioAssay (NCI).

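Tested at 5 concentrations; 48 h exposure; 96-well plates; endpoints linearly interpolated, else capped at highest concentration. The concentration for 50% growth inhibition is given as GI50. TGI marks complete inhibition of growth.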 *1 amine or outer side, *2 acyl side, *3 side chain or, on linkers, in order; H or OH if unused. Where a SMILES comes first, the peptide text is derived from it. Bridges are numbered along the chain shown (N, C = ends). Roman numbers before positions name the chains, in order. X23 = CCCCCCCCCCCCCCC(=O)NC(CCCCN[*:2])C(=O)CN1CCCC1C(=O)[*:1]

Test systems include BT-549 breast; CAKI-1 renal; HS 578T breast; MDA-MB-231 breast; NCI-H226 lung; NCI-H23 lung; 786-0 renal; HOP-62 NSCLC; MCF7 breast; RXF 393 renal.
Assay in all cases: growth of human tumour cells (NCI), 48 h

As for `CN(CCNC(=O)c1cn(C)c2c1ccc1cc(Cl)ccc12)CCNC(=O)c1cn(C)c2c1ccc1cc(Cl)ccc12`, the TGI in the experiment on BT-549 breast was found to be 21.9 µM; in the experiment with CAKI-1 renal it was 4.99 µM; with HS 578T breast it was 4.25 µM; in the experiment on MDA-MB-231 breast it was 71.8 µM; in the experiment with NCI-H226 lung, 77.8 µM; in the experiment with NCI-H23 lung it was 4.87 µM.
Take `OCCSCc1cc(Cl)cc(Cl)c1O`: the TGI with 786-0 renal, in the experiment with BT-549 breast, with CAKI-1 renal, with HOP-62 NSCLC, in the experiment with HS 578T breast and in the experiment with MCF7 breast was above 100 µM throughout. The TGI in the experiment on MDA-MB-231 breast, with NCI-H226 lung, in the experiment on NCI-H23 lung and in the experiment on RXF 393 renal was above 100 µM throughout.
Regarding `O=C1CSc2sc(=S)sc2S1`, the TGI in the experiment on HOP-62 NSCLC, in the experiment on MCF7 breast, in the experiment on NCI-H226 lung, with NCI-H23 lung and in the experiment on RXF 393 renal was above 100 µM each time.
Regarding `Cc1cc(O)c2cc3c(O)c(O)ccc3cc2c1`, the TGI in the experiment with 786-0 renal was above 47.8 µM; with BT-549 breast, above 44.3 µM; in the experiment on CAKI-1 renal, 6.63 µM; in the experiment with HOP-62 NSCLC, 10.3 µM; in the experiment on HS 578T breast it was 6.22 µM; in the experiment on MCF7 breast it was above 87 µM. Also, the TGI was 3.21 µM in the experiment with MDA-MB-231 breast, 5.63 µM in the experiment with NCI-H226 lung, 6 µM in the experiment on NCI-H23 lung and 14.1 µM in the experiment with RXF 393 renal.
Regarding `CC(C)(C)OC(=O)N1CCCC1C(=O)NCCNc1ccc(NCCNC(=O)C2CCCN2C(=O)OC(C)(C)C)c2c1C(=O)c1ccccc1C2=O` (configuration not stated), the TGI in the experiment on 786-0 renal is 28 µM; in the experiment on BT-549 breast, 25.7 µM; with CAKI-1 renal, 36.9 µM; in the experiment with HOP-62 NSCLC, 33.2 µM; in the experiment on HS 578T breast it was 69.5 µM; in the experiment with MCF7 breast it was 34.2 µM. For the same compound, the TGI with MDA-MB-231 breast was 25.9 µM; in the experiment with NCI-H226 lung, 46.6 µM; in the experiment on NCI-H23 lung it was 29.4 µM.
In the case of `O=C1NC2(NC(=O)C1=O)Nc1ccccc1S2`, the TGI with 786-0 renal was 48.6 µM; in the experiment on CAKI-1 renal, above 100 µM; in the experiment with HOP-62 NSCLC, above 100 µM; in the experiment on NCI-H226 lung it was above 100 µM; with NCI-H23 lung, above 100 µM; in the experiment with RXF 393 renal it was above 100 µM.
As to `Cc1ccc(NC(=O)CC(=O)n2nc(-c3ccccc3)c(N=Nc3ccccc3C(=O)O)c2-c2ccccc2)cc1`, the TGI in the experiment on CAKI-1 renal, with HOP-62 NSCLC, in the experiment with NCI-H226 lung and with RXF 393 renal was above 100 µM in each case.
For `Nc1nccc2c1ncn2C1C=C(CO)C(O)C1O` (configuration not stated), the GI50 with HOP-62 NSCLC is 0.408 µM; with NCI-H226 lung, above 1000 µM; with NCI-H23 lung it was 269 µM; with RXF 393 renal it was 851 µM. Also, the TGI was 89.9 µM in the experiment with HOP-62 NSCLC, above 1000 µM in the experiment on NCI-H226 lung, above 1000 µM with NCI-H23 lung and above 1000 µM in the experiment with RXF 393 renal.
For the compound `O=C1/C(=C/c2ccc3c(c2)OCO3)Sc2scc(-c3ccc(O)c(O)c3)[n+]21`, the TGI is 5.48 µM in the experiment on 786-0 renal; 6.13 µM in the experiment on BT-549 breast; 2.9 µM in the experiment on CAKI-1 renal; 41.6 µM in the experiment with HOP-62 NSCLC; 72.6 µM with HS 578T breast; above 35.2 µM in the experiment with MCF7 breast. The TGI with MDA-MB-231 breast is above 28.8 µM; with NCI-H226 lung it was above 100 µM; with NCI-H23 lung, 9.29 µM.
In the case of `CCCCCCCCCCCCCCC(=O)NC(CCCCNC(=O)C1CCCN1C(=O)C(CCCCN)NC(=O)C(CCCCN)NC(=O)C(CCCCN)NC(=O)C(CCCNC(=N)N)NC(=O)C(CCCCN)NC(=O)C(N)C(C)C)C(=O)CN1CCCC1C(=O)NCC(=O)NC(Cc1ccccc1)C(=O)N1CCCC1C(=O)NC(CO)C(=O)NC(Cc1ccc(O)cc1)C(=O)NC(CCCCN)C(=O)NC(CC(C)C)C(=O)NC(CCCNC(=N)N)C(=O)N1CCCC1C(=O)NCC(N)=O` (configuration not stated) (I: GFPSYKLRPG-NH2 / II: H-VKRKKKP; linker I:N-II:C via X23; configuration not given here), the GI50 in the experiment with BT-549 breast is 23.4 µM; in the experiment with CAKI-1 renal, 14 µM; in the experiment with HOP-62 NSCLC, 27.8 µM; in the experiment with HS 578T breast it was 41.1 µM; in the experiment on MCF7 breast, 15.4 µM; in the experiment on MDA-MB-231 breast, 20.9 µM. For the same compound, the GI50 is 23.7 µM with NCI-H226 lung, 23.8 µM in the experiment on NCI-H23 lung and 20.7 µM in the experiment with RXF 393 renal. The TGI is 54.7 µM with BT-549 breast; 36.9 µM with CAKI-1 renal; 69.5 µM in the experiment with HOP-62 NSCLC; above 100 µM with HS 578T breast; 45.7 µM in the experiment with MCF7 breast; 43.7 µM in the experiment with MDA-MB-231 breast. The TGI in the experiment with NCI-H226 lung amounted to 49.7 µM; in the experiment on NCI-H23 lung, 92.8 µM; in the experiment with RXF 393 renal, 51.1 µM.
Turning to `O=[P+](O)c1cccs1`, the TGI in the experiment on CAKI-1 renal, with NCI-H23 lung and with RXF 393 renal was above 100 µM in each case.
For `CCc1cccc(C(C)C)c1NC1=C([n+]2ccc(C)cc2)C(=O)c2ccccc2C1=O`, the TGI in the experiment with 786-0 renal was 12.1 µM; in the experiment with CAKI-1 renal it was 5.41 µM; in the experiment with HOP-62 NSCLC it was 9.62 µM; in the experiment on HS 578T breast, above 100 µM; in the experiment on MCF7 breast it was 1.3 µM; in the experiment on MDA-MB-231 breast, above 34.7 µM. In addition, the TGI in the experiment on NCI-H226 lung is 8.76 µM; in the experiment on NCI-H23 lung, above 100 µM; in the experiment on RXF 393 renal, 4.28 µM.
